Earlier results, collected in publication PMC10654029 (The Journal of Biological Chemistry, 2023).

Tests used:
[1] = tested on: Ba/F3 cells expressing METex14 L1195V; settings: Ba/F3 cells expressing METex14 L1195V vs WT
[2] = tested on: Ba/F3 cells expressing METex14 F1200I; settings: Ba/F3 cells expressing METex14 F1200I vs WT

## CN1CCC(COc2cnc(-c3cccc(Cn4nc(-c5cccc(C#N)c5)ccc4=O)c3)nc2)CC1 [tepotinib]
[1]
  decrease of cellular potency compared with the WT: ~15 fold
[2]
  decrease of cellular potency compared with the WT: ~15 fold
